Consider 16 molecules from patent publication US10077261B2, “Imidazolin-5-one derivative useful as FASN inhibitors for the treatment of cancer” (Janssen Pharmaceutica NV, priority 2012, dated 2018).

In assay [1] the test system is A2780 ovarian cells. Nature of the assay: A2780 ovarian cell proliferation assay in lipid reduced medium, with palmitate (MTT). The format is cell-based. As to conditions: Homo sapiens, A2780, 96 h; read-out: pIC50 A2780 Ovarian Cell, With Palmitate (converted). The method in brief:
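Seeded cells were switched next day to lipid-reduced serum, exposed to compound and 25 μM palmitate complexed with fatty-acid-free BSA, and incubated 96 h. Proliferation was then determined by MTT absorbance at 544 nm, with a best-fit curve of signal against concentration.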

Assay [2] deals with Fatty Acid Synthase Keto-reductase Domain (FASN KR) (Homo sapiens, UniProt P49327). Nature of the assay: Fatty Acid Synthase keto-reductase domain (FASN KR) inhibition, NADPH oxidation at 340 nm.
Fatty Acid Synthase Keto-reductase Domain (FASN KR), sequence (P49327 whole entry, the tested form may be a part): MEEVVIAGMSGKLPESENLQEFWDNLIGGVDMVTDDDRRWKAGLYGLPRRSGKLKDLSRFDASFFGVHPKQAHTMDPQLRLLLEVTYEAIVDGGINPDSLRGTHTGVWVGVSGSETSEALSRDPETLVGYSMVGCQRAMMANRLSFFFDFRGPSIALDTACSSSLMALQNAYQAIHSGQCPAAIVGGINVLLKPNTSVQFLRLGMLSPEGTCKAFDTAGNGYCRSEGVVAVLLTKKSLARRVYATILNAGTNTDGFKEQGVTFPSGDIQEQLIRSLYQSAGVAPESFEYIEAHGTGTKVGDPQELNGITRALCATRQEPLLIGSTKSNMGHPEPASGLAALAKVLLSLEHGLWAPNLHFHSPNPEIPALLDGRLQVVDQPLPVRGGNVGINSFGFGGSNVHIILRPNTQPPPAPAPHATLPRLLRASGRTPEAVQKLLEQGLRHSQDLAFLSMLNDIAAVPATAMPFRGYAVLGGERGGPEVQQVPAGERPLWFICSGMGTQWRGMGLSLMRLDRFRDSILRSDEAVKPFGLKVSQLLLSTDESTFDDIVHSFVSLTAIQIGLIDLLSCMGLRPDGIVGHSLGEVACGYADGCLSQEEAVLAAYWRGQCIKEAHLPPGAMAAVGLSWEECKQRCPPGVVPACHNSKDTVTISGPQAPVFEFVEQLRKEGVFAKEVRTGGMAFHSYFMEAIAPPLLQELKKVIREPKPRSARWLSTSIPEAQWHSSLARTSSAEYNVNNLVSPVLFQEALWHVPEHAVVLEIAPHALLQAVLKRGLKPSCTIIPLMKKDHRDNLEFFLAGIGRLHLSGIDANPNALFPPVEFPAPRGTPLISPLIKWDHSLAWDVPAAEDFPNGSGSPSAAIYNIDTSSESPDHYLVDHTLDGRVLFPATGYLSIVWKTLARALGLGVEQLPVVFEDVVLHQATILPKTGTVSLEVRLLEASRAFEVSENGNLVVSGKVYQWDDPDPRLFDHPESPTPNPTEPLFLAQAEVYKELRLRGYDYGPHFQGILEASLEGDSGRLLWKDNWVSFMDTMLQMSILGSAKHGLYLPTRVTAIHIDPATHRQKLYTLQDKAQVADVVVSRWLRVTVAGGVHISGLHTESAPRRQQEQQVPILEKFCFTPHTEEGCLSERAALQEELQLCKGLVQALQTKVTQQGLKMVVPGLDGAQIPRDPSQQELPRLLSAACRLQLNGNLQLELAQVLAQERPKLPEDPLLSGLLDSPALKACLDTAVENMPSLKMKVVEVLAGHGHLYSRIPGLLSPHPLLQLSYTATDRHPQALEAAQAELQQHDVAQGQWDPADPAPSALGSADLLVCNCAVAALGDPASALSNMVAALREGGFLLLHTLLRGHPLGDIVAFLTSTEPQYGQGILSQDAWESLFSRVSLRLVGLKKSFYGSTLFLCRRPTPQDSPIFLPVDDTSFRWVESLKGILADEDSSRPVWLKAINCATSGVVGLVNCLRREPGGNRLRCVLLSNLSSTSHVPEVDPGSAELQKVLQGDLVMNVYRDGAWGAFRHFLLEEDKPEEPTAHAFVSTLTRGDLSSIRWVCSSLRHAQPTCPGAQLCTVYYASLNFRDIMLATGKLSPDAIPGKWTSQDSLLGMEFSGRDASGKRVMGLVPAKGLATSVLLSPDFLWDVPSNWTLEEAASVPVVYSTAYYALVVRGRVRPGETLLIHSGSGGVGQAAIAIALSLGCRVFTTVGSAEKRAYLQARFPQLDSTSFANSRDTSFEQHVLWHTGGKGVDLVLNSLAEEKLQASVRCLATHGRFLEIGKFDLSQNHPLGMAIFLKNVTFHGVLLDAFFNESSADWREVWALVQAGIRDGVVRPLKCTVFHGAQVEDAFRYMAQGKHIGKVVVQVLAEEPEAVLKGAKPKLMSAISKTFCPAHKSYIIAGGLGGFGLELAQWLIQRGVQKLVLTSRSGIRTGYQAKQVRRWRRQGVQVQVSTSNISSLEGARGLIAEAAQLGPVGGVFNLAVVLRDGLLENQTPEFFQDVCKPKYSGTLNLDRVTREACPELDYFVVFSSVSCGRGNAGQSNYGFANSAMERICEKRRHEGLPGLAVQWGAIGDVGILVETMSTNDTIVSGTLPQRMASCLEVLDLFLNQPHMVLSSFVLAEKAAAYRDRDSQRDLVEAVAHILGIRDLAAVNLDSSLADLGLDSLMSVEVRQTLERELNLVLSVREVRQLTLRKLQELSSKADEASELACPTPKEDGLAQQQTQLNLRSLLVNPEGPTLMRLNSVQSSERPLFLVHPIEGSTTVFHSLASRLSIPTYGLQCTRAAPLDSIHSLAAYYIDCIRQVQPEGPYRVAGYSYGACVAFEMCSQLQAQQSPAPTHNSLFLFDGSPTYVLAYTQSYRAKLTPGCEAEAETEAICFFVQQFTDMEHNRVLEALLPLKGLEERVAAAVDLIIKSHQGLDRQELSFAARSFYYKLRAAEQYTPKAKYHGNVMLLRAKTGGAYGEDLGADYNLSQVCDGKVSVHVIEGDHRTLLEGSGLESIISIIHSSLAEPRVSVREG
Method: After 20 minutes incubation at room temperature the plate was measured again (T2).
The decrease in absorbance was calculated as (Absorbance before incubation T1)−(Absorbance following incubation T2).
A plot of Controlmin versus test compound concentration was fitted to a 4-parameter logistic curve using a non-linear least squares regression method.
In assay [3] the test system is LNCaP-Vancouver prostate cells. Nature of the assay: In vitro LNCaP Vancouver prostate cell proliferation assay in lipid reduced medium. As to conditions: read-out: pIC50 LNCaP_Vancouver prostate cell (converted). It counts as cell-based.
Assay [4] deals with T1, hFASN enzyme (full length) (Homo sapiens, UniProt P49327).
T1 construct: 10 μL hFASN enzyme (full length, 300 ng, purified in house); made in house
T1 sequence (P49327 whole entry): as the sequence (P49327 whole entry, the tested form may be a part) above
Kind of assay: Fatty Acid Synthase (FASN) inhibition scintillation proximity assay. It counts as biochemical. To be noted: for inhibition at 10 µM: read-out: Human FASN % inhibition @ 10 μM, 10 μM test compound; for IC50: read-out: Human FASN pIC50 (converted). In outline: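 Purified full-length hFASN (300 ng) converts ^3H-acetyl-CoA plus malonyl-CoA to ^3H-palmitate in 100 mM KH2PO4 pH 7.5, 1 mM DTT; compounds tested at 0.01–30 μM. Product captured on streptavidin imaging beads and read by LEADseeker at 610 nm after ≥24 h; 4-parameter logistic fit versus controls.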

For assay [5], the system named is A2780 ovarian cells. Nature of the assay: A2780 ovarian cell proliferation assay in lipid reduced medium, without palmitate (MTT). The format is cell-based. To be noted: Homo sapiens, A2780, 96 h; read-out: pIC50 A2780 Ovarian Cell, Without Palmitate (converted).

Turning to `Cn1nc(CO)c2cc(-c3ccc(C4=NC5(CC5)C(=O)N4CC4CN(C(=O)C5CC5)C4)cc3)ccc21` [compound 530, 6-{[1-(Cyclopropylcarbonyl)azetidin-3-yl]methyl}-5-{4-[3-(hydroxymethyl)-1-methyl-1H-indazol-5-yl]phenyl}-4,6-diazaspiro[2.4]hept-4-en-7-one], the IC50 is more than 10000 nM in the assay with A2780 ovarian cells [1]; 2950 nM in assay [2]; 5130 nM in assay [3]; 263 nM in assay [4]; 776 nM with A2780 ovarian cells [5]. For the same molecule, in assay [4], the inhibition at 10 µM came to 97%.
As for `O=C(C1CC1)N1CC(CN2C(=O)C3(CC3)N=C2c2ccc(-c3ccc4cncnc4c3)cc2)C1` [compound 543, 6-{[1-(Cyclopropylcarbonyl)azetidin-3-yl]methyl}-5-(4-quinazolin-7-ylphenyl)-4,6-diazaspiro[2.4]hept-4-en-7-one], the IC50 was more than 10000 nM in the assay with A2780 ovarian cells [1]; 479 nM in assay [2]; 2000 nM in assay [3]; 145 nM in assay [4]; 141 nM in the assay with A2780 ovarian cells [5]. Moreover, in assay [4], the inhibition at 10 µM stood at 97%.
For `Cn1ccc(-c2ccc(-c3ccc(C4=NC5(CC5)C(=O)N4CC4CN(C(=O)C5CC5)C4)c(F)c3)cc2)n1` [compound 547, 6-{[1-(Cyclopropylcarbonyl)azetidin-3-yl]methyl}-5-[3-fluoro-4′-(1-methyl-1H-pyrazol-3-yl)biphenyl-4-yl]-4,6-diazaspiro[2.4]hept-4-en-7-one], the IC50 is 5890 nM in the assay with A2780 ovarian cells [1]; 676 nM in assay [2]; 1000 nM in assay [3]; 178 nM in assay [4]; approximately 174 nM in the assay on A2780 ovarian cells [5]. The inhibition at 10 µM in assay [4] came to 98%.
As to `Cc1cc2cc(-c3ccc(C4=NC5(CC5)C(=O)N4CC4CN(C(=O)C5CC5)C4)c(F)c3)ccc2s1` [compound 548, 6-{[1-(Cyclopropylcarbonyl)azetidin-3-yl]methyl}-5-[2-fluoro-4-(2-methyl-1-benzothiophen-5-yl)phenyl]-4,6-diazaspiro[2.4]hept-4-en-7-one], the IC50 was 6170 nM with A2780 ovarian cells [1]; 166 nM in assay [2]; 1100 nM in assay [3]; 162 nM in assay [4]; approximately 295 nM with A2780 ovarian cells [5]. Also, the inhibition at 10 µM in assay [4] is 88%.
Consider `COc1nn(C)c2ccc(-c3ccc(C4=NC5(CC5)C(=O)N4C[C@@H]4CCN(C(=O)C5CC5)C4)cc3)cc12` [compound 557, 6-{[(3R)-1-(Cyclopropylcarbonyl)pyrrolidin-3-yl]methyl}-5-[4-(3-methoxy-1-methyl-1H-indazol-5-yl)phenyl]-4,6-diazaspiro[2.4]hept-4-en-7-one], for which the IC50 was 4790 nM in the assay with A2780 ovarian cells [1]; 427 nM in assay [2]; 1380 nM in assay [3]; 372 nM in assay [4]; 200 nM in the assay on A2780 ovarian cells [5]. In assay [4], the inhibition at 10 µM amounted to 97%.
With `Cc1cc(-c2ccc(C#N)cc2F)ccc1C1=NC2(CC2)C(=O)N1CC1CN(C(=O)C2(C)CC2)C1` [compound 580], the IC50 in the assay on A2780 ovarian cells [1] is more than 10000 nM; in assay [2], 603 nM; in assay [3], 759 nM; in assay [4], 123 nM; in the assay on A2780 ovarian cells [5], 56.2 nM. Moreover, the inhibition at 10 µM in assay [4] stood at 108%.
Take `Cc1cc(-c2cccc(NC(=O)C3CC3)c2)ccc1C1=NC2(CC2)C(=O)N1C[C@@H]1CCN(C(=O)C2CC2)C1` [compound 614, N-[4′-(6-{[(3R)-1-(Cyclopropylcarbonyl)pyrrolidin-3-yl]methyl}-7-oxo-4,6-diazaspiro[2.4]hept-4-en-5-yl)-3′-methylbiphenyl-3-yl]cyclopropanecarboxamide]: the IC50 was more than 10000 nM in the assay with A2780 ovarian cells [1]; 309 nM in assay [2]; 1350 nM in assay [3]; 151 nM in assay [4]; 170 nM with A2780 ovarian cells [5]. Also, the inhibition at 10 µM in assay [4] is 102%.
For the molecule `Cc1cc(-c2cccc(SC3CC3)c2)ccc1C1=NC2(CC2)C(=O)N1C[C@@H]1CCN(C(=O)C2CC2)C1` [compound 642, 6-{[(3R)-1-(Cyclopropylcarbonyl)pyrrolidin-3-yl]methyl}-5-[3′-(cyclopropylsulfanyl)-3-methylbiphenyl-4-yl]-4,6-diazaspiro[2.4]hept-4-en-7-one], the IC50 is more than 10000 nM in the assay on A2780 ovarian cells [1]; 776 nM in assay [2]; 6170 nM in assay [3]; 219 nM in assay [4]; approximately 3800 nM with A2780 ovarian cells [5]. Also, in assay [4], the inhibition at 10 µM was 99%.
Regarding `Cn1cc2cc(-c3ccc(C4=NC5(CC5)C(=O)N4CC4CN(C(=O)C5CC5)C4)c(F)c3)ccc2n1` [compound 644, 6-{[1-(Cyclopropylcarbonyl)azetidin-3-yl]methyl}-5-[2-fluoro-4-(2-methyl-2H-indazol-5-yl)phenyl]-4,6-diazaspiro[2.4]hept-4-en-7-one], the IC50 is more than 10000 nM in the assay on A2780 ovarian cells [1]; 1450 nM in assay [2]; 2820 nM in assay [3]; 178 nM in assay [4]; 162 nM with A2780 ovarian cells [5]. The inhibition at 10 µM in assay [4] worked out at 97%.
For `N#Cc1ccc2sc(-c3ccc(C4=NC5(CC5)C(=O)N4CC4CN(C(=O)C5CC5)C4)c(F)c3)nc2c1` [compound 652, 2-[4-(6-{[1-(Cyclopropylcarbonyl)azetidin-3-yl]methyl}-7-oxo-4,6-diazaspiro[2.4]hept-4-en-5-yl)-3-fluorophenyl]-1,3-benzothiazole-5-carbonitrile], the IC50 in the assay on A2780 ovarian cells [1] was more than 6170 nM; in assay [2], 347 nM; in assay [3], 1200 nM; in assay [4], 186 nM; in the assay with A2780 ovarian cells [5], 174 nM. Further, the inhibition at 10 µM in assay [4] turned out to be 97%.
`O=C(C1CC1)N1CC[C@@H](CN2C(=O)C3(CCOCC3)N=C2c2ccc(-c3ccc4occc4c3)cc2)C1` [compound 667, 2-[4-(1-Benzofuran-5-yl)phenyl]-3-{[(3R)-1-(cyclopropylcarbonyl)pyrrolidin-3-yl]methyl}-8-oxa-1,3-diazaspiro[4.5]dec-1-en-4-one]: the IC50 with A2780 ovarian cells [1] was more than 10000 nM; in assay [2], 339 nM; in assay [3], 1780 nM; in assay [4], 155 nM; in the assay on A2780 ovarian cells [5] it was approximately 1000 nM. In assay [4], the inhibition at 10 µM is 97%.
Take `O=C([C@H]1CCCO1)N1CC(CN2C(=O)C3(CCOC3)N=C2c2ccc(-c3ccc4cccnc4c3)cc2)C1` (stereo partly drawn) [compound 716, 2-(4-Quinolin-7-ylphenyl)-3-({1-[(2R)-tetrahydro-furan-2-ylcarbonyl]azetidin-3-yl}methyl)-7-oxa-1,3-diazaspiro[4.4]non-1-en-4-one]: the IC50 in the assay with A2780 ovarian cells [1] was more than 10000 nM; in assay [2] it was 1050 nM; in assay [3] it was 5500 nM; in assay [4], 398 nM; with A2780 ovarian cells [5] it was 513 nM. Besides, in assay [4], the inhibition at 10 µM is 88%.
For the molecule `CC(C)N1CCC2(CC1)N=C(c1ccc(-c3ccc4[nH]ccc4c3)cc1)N(C[C@@H]1CCN(C(=O)C3CC3)C1)C2=O` [compound 744, 3-{[(3R)-1-(Cyclopropylcarbonyl)pyrrolidin-3-yl]methyl}-2-[4-(1H-indol-5-yl)phenyl]-8-(1-methylethyl)-1,3,8-triazaspiro[4.5]dec-1-en-4-one], the IC50 with A2780 ovarian cells [1] is more than 10000 nM; in assay [2], 251 nM; in assay [3], 851 nM; in assay [4], 115 nM; with A2780 ovarian cells [5] it was approximately 214 nM. Besides, the inhibition at 10 µM in assay [4] worked out at 98%.
On to `CS(=O)(=O)N1CCC2(CC1)N=C(c1ccc(-c3ccc4[nH]ccc4c3)cc1)N(C[C@@H]1CCN(C(=O)C3CC3)C1)C2=O` [compound 745, 3-{[(3R)-1-(Cyclopropylcarbonyl)pyrrolidin-3-yl]methyl}-2-[4-(1H-indol-5-yl)phenyl]-8-(methylsulfonyl)-1,3,8-triazaspiro[4.5]dec-1-en-4-one], for which the IC50 in the assay with A2780 ovarian cells [1] is more than 10000 nM; in assay [2], 158 nM; in assay [3], 851 nM; in assay [4], 70.8 nM; in the assay with A2780 ovarian cells [5] it was 95.5 nM. The inhibition at 10 µM in assay [4] was determined as 104%.
Turning to `O=C(C1CC1)N1CC[C@@H](CN2C(=O)C3(CCN(C(=O)C(F)(F)F)CC3)N=C2c2ccc(-c3ccc4[nH]ccc4c3)cc2)C1` [compound 751, 3-{[(3R)-1-(Cyclopropylcarbonyl)pyrrolidin-3-yl]methyl}-2-[4-(1H-indol-5-yl)phenyl]-8-(trifluoroacetyl)-1,3,8-triazaspiro[4.5]dec-1-en-4-one], the IC50 in the assay on A2780 ovarian cells [1] was more than 10000 nM; in assay [2] it was 166 nM; in assay [3] it was 724 nM; in assay [4] it was 135 nM; in the assay on A2780 ovarian cells [5], 89.1 nM. Moreover, the inhibition at 10 µM in assay [4] is 98%.
As to `O=C(C1CC1)N1CC[C@@H](CN2C(=O)C3(CCCC3)N=C2c2ccc(-c3cnc4[nH]ccc4c3)cc2F)C1` [compound 881, (R)-3-((1-(cyclopropanecarbonyl)pyrrolidin-3-yl)methyl)-2-(2-fluoro-4-(1H-pyrrolo[2,3-b]pyridin-5-yl)phenyl)-1,3-diazaspiro[4.4]non-1-en-4-one], the IC50 was more than 10000 nM with A2780 ovarian cells [1]; 316 nM in assay [2]; 1320 nM in assay [3]; 107 nM in assay [4]; 240 nM with A2780 ovarian cells [5]. The inhibition at 10 µM in assay [4] was found to be 101%.

The inhibition is the change of the read-out against control, counted positive when it falls.
